Results taken from patent US10391080B2, “Ketorolac for the treatment of cancer” (Cipla Limited, priority 2016, dated 2019).
Like-named read-outs stand apart in the source and are kept apart here.

Experiments:
Assay type in all cases: cell-based
RXF ACHN = test: In vitro 2D assay, CellTiter-Blue Cell Viability Assay; conditions: Homo sapiens, 96 h treatment
Procedure: (§1) The objective of this study was to investigate the in-vitro anticancer activity of ketorolac. Antitumor activity was assessed in ten selected renal cancer cell lines by using the CellTiter-Blue Cell Viability Assay. The human renal cancer cell lines RXF 1183L, RXF 1220L, RXF 1781L, RXF 393L, RXF 486L, RXF 786-0, RXF A-498, RXF ACHN, RXF Caki-1 and RXF SN12C were used. RXF 1183L, RXF 1220L, RXF 1781L, RXF 393L and RXF 486L were established at Oncotest from the corresponding human patient-derived xenograft. The cell lines 786-0, A-498, Caki-1 and SN12C were purchased from NCI (National Cancer Institute, Bethesda, Md., USA). ACHN was purchased from ECACC (European Collection of Cell Cultures, Salisbury, UK). Authenticity of cell lines was confirmed at the DSMZ by STR (short tandem repeat) analysis, a PCR based DNA-fingerprinting methodology.
(§2) Cell lines were routinely passaged once or twice weekly and maintained in culture for up to 20 passages. All cells were grown at 37° C. in a humidified atmosphere with 5% CO2 in RPMI 1640 medium (25 mM HEPES, with L-glutamine, #FG1385, Biochrom, Berlin, Germany) supplemented with 10% (v/v) fetal calf serum (Sigma, Taufkirchen, Germany) and 0.1 mg/mL gentamicin (Life Technologies, Karlsruhe, Germany).
(§3) Ketorolac was dissolved at a concentration of 60 mM in cell culture media. Starting with this stock solution, dilutions were made using cell culture media resulting in final test concentrations of 12000, 7800, 6000, 4200, 3000, 1800, 600, 420, 180, 60 μM. Precipitation was not observed.
(§4) The CellTiter-Blue Cell Viability Assay was used according to manufacturer's instructions. Briefly, cells were harvested from exponential phase cultures, counted and plated in 96-well flat-bottom microtiter plates at a cell density of 4,000-12,000 cells/well depending on the cell line's growth rate. After a 24 h recovery period to allow the cells to resume exponential growth, ketorolac was applied at 8 to 10 concentrations in duplicate and treatment continued for 96 h. After 96 h treatment of cells, 20 μL/well CellTiter-Blue® reagent was added. Following an incubation period of up to four hours, fluorescence (FU) was measured by using the Enspire Multimode Plate Reader (excitation λ=531 nm, emission λ=615 nm).
(§5) For calculations, the mean values of duplicate/quadruplicate (untreated control) data were used. Sigmoidal concentration-response curves were fitted to the data points (T/C values) obtained for each cell line using 4 parameter non-linear curve fit.

RXF 393L = test: as above; conditions: Homo sapiens, 96 h treatment
Procedure: as §1, §2, §3, §4, §5

RXF 1781L = test: as above; conditions: Homo sapiens, 96 h treatment
Procedure: as §1, §2, §3, §4, §5

RXF 1220L = test: as above; conditions: Homo sapiens, 96 h treatment
Procedure: as §1, §2, §3, §4, §5

RXF Caki-1 = test: as above; conditions: Homo sapiens, Caki-1, 2D, 96 h treatment
Procedure: as §1, §2, §3, §4, §5

RXF 1183L = test: as above; conditions: Homo sapiens, 96 h treatment
Procedure: as §1, §2, §3, §4, §5

RXF A-498 = test: as above; conditions: Homo sapiens, A498, A-498, 2D, 96 h treatment
Procedure: as §1, §2, §3, §4, §5

RXF SN12C = test: as above; conditions: Homo sapiens, 96 h treatment
Procedure: as §1, §2, §3, §4, §5

RXF 486L = test: as above; conditions: Homo sapiens, 96 h treatment
Procedure: as §1, §2, §3, §4, §5

RXF 786-0 = test: as above; conditions: Homo sapiens, 786-O, 96 h treatment
Procedure: as §1, §2, §3, §4, §5

[1] = test system: tumor cell lines of renal cancer; test: In vitro 3D combination study, clonogenic assay, both cell lines; conditions: Homo sapiens, A498; compound alone, colony formation in soft agar, range over RXF 1183L and RXF A-498; read-out: Relative IC50, single agent
Procedure: The objective of this study was to assess anti-tumor efficacy of ketorolac in combination with sunitinib in a 5×5 matrix combination format against tumor cell lines of renal cancer using a clonogenic assay with image analysis as read-out.
The clonogenic assay was carried out in a 96 well plate format using ultra low attachment plates. For each test cells were prepared as described above, and assay plates were prepared as follows: each test well contained a layer of semi-solid medium with tumor cells (50 μl), and a second layer of medium supernatant with or without test compounds (100 μl). The cell layer consisted of 3×10^3 to 1×10^4 tumor cells per well, which were seeded in 50 μl/well cell culture medium (IMDM, supplemented with 20% (v/v) fetal calf serum, 0.01% (w/v) gentamicin, and 0.4% (w/v) agar). The soft agar layer was immediately covered with 90 μl of the same culture medium without agar. After 24 h the test compounds were added after serial dilution in IMDM and transfer in cell culture medium, and left on the cells for the duration of the experiment (continuous exposure, 100 μL total drug overlay). Every plate included six untreated control wells and drug-treated groups in a layout as shown above. […] At the time of maximum colony formation, counts were performed with an automatic image analysis system (Celllnsight NXT, Thermo Scientific). […]

Q: For `O=C(c1ccccc1)c1ccc2n1CCC2C(=O)O` (racemic) [Ketorolac, (±)-5-benzoyl-2,3-dihydro-1H-pyrrolizine-1-carboxylic acid], which IC50 (RXF ACHN; read-out: Absolute IC50) is on record?
A: 2.8 mM

Q: And the IC50 (RXF ACHN; read-out: Relative IC50)?
A: 3.39 mM

Q: What about the IC50 (RXF 393L; read-out: Absolute IC50) of the same compound?
A: 3.14 mM

Q: And the IC50 (RXF 393L; read-out: Relative IC50)?
A: 3.75 mM

Q: What about the IC50 (RXF 1781L; read-out: Absolute IC50) of the same compound?
A: 3.82 mM

Q: What about the IC50 (RXF 1781L; read-out: Relative IC50) of the same compound?
A: 4.44 mM

Q: What about the IC50 (RXF 1220L; read-out: Absolute IC50) of the same compound?
A: 4.77 mM

Q: And the IC50 (RXF 1220L; read-out: Relative IC50)?
A: 5.36 mM

Q: And the IC50 (RXF Caki-1; read-out: Absolute IC50)?
A: 2.79 mM

Q: And the IC50 (RXF Caki-1; read-out: Relative IC50)?
A: 3.44 mM

Q: What about the IC50 (RXF 1183L; read-out: Absolute IC50) of the same compound?
A: 2.4 mM

Q: What about the IC50 (RXF 1183L; read-out: Relative IC50) of the same compound?
A: 2.67 mM

Q: What about the IC50 (RXF A-498; read-out: Absolute IC50) of the same compound?
A: 4.75 mM

Q: And the IC50 (RXF A-498; read-out: Relative IC50)?
A: 5.65 mM

Q: What about the IC50 (RXF SN12C; read-out: Absolute IC50) of the same compound?
A: 2.44 mM

Q: And the IC50 (RXF SN12C; read-out: Relative IC50)?
A: 2.82 mM

Q: And the IC50 (RXF 486L; read-out: Absolute IC50)?
A: 3.15 mM

Q: And the IC50 (RXF 486L; read-out: Relative IC50)?
A: 3.29 mM

Q: What about the IC50 (RXF 786-0; read-out: Absolute IC50) of the same compound?
A: 3.25 mM

Q: What about the IC50 (RXF 786-0; read-out: Relative IC50) of the same compound?
A: 3.85 mM

Q: What about the IC50 [1] of the same compound?
A: 0.589 to 1.76 mM
